These results are taken from patent USRE48461E1, “Modulation of androgen receptor expression” (Ionis Pharmaceuticals, Inc., priority 2012, dated 2021).

Oligonucleotides are written 5' to 3', each unit as a sugar letter and its base; * is a phosphorothioate linkage, no mark a phosphodiester; rarer units and linkages stand in square brackets, end groups in braces. Plain capitals give the bases only. e = 2'-O-(2-methoxyethyl) (MOE); k = constrained ethyl (cEt); [5mC] = 5-methylcytosine; d = 2'-deoxy (DNA)

Series [1] relates to AR mRNA. Briefly: Antisense inhibition of human AR in HuVEC cells, single concentration (electroporation, qRT-PCR RTS3559). The class given is cell-based. An outline of the steps: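 AR mRNA levels were measured with human primer-probe set RTS3559 and adjusted for total RNA (RIBOGREEN). Cells were HuVEC, with each antisense oligonucleotide delivered by electroporation at one concentration.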

Series [2] has as its system AR mRNA. Kind of series: Dose-dependent antisense inhibition of human AR in HuVEC cells (electroporation, qRT-PCR RTS3559, IC50). The class given is cell-based. To be noted: HuVEC. The procedure, abridged: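 HuVEC cells dosed with antisense oligonucleotides by electroporation and treated approximately 16 hours. AR mRNA quantified by real-time qPCR with primer probe set RTS3559 and normalised to total RNA by RIBOGREEN; IC50 from dose-response.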

Setting [3] is: Table 30, electroporation, approximately 16 hours.
The mark [4] stands for this setting: 500 nM ASO, electroporation, ~24 h, Table 1.
The mark [5] stands for this setting: Table 20, 500 nM oligonucleotide, electroporation, approximately 24 hours, relative to untreated control.
[6] abbreviates: Table 33, electroporation, approximately 16 hours.
Setting [7] is: Table 32, electroporation, approximately 16 hours.
The mark [8] stands for this setting: Table 29, electroporation, approximately 16 hours.
[9] abbreviates: Table 36, electroporation, approximately 16 hours.
[10] abbreviates: Table 34, electroporation, approximately 16 hours.

As for “583637 (antisense kA*kT*k[5mC]*dT*d[5mC]*dT*dG*dG*d[5mC]*dT*d[5mC]*d[5mC]*dG*k[5mC]*kA*k[5mC]) [compound 583637]”, in the series on AR mRNA [1] (500 nM ASO, ~24 h, Table 17), the “% inhibition” value was determined as 43%. In addition, in the series on AR mRNA [2] (setting [3]), the “percent inhibition of AR, 46.9 nM” value is reported as 22%; the “percent inhibition of AR, 187.5 nM” value is reported as 32%; the “percent inhibition of AR, 750.0 nM” value is on record as 59%; the “percent inhibition of AR, 3000.0 nM” value stood at 75%. Further, the IC50 in the series on AR mRNA [2] (setting [3]) turned out to be 450 nM.

With “549362 (k[5mC]*k[5mC]*k[5mC]*dG*dA*dA*dG*d[5mC]*dT*dG*dT*dT*d[5mC]*k[5mC]*k[5mC]*k[5mC]; antisense) [compound 549362]”, the “% inhibition” value in the series with AR mRNA [1] (setting [4]) turned out to be 85%. Besides, the “percent inhibition of AR” value in the series with AR mRNA [2] (55.6 nM, ~16 h, Table 3) was 10%; with AR mRNA [2] (166.7 nM, ~16 h, Table 3), 23%; in the series with AR mRNA [2] (500.0 nM, ~16 h, Table 3), 57%; with AR mRNA [2] (1500.0 nM, ~16 h, Table 3), 74%. Further, half-maximal inhibition with AR mRNA [2] (~16 h, Table 3) (IC50) was put at 447 nM.

Turning to “583862 (kG*k[5mC]*kT*d[5mC]*dT*dT*dG*d[5mC]*d[5mC]*dT*dG*d[5mC]*dG*k[5mC]*kT*kG; antisense) [compound 583862]”, the “% inhibition” value in the series with AR mRNA [1] (setting [5]) stood at 32%. For the same substance, in the series on AR mRNA [2] (setting [6]), the “percent inhibition of AR, 46.9 nM” value was 15%; the “percent inhibition of AR, 187.5 nM” value was found to be 37%; the “percent inhibition of AR, 750.0 nM” value is 64%; the “percent inhibition of AR, 3000.0 nM” value is on record as 79%. In the series with AR mRNA [2] (setting [6]), this substance had an IC50 of 410 nM.

As to “583759 (antisense kG*k[5mC]*kT*dG*dT*dT*d[5mC]*d[5mC]*dT*d[5mC]*dA*dT*d[5mC]*k[5mC]*kA*kG) [compound 583759]”, in the series on AR mRNA [1] (Table 19, 500 nM oligonucleotide, electroporation, approximately 24 hours, relative to untreated control), the “% inhibition” value worked out at 38%. Moreover, in the series with AR mRNA [2] (setting [7]), the “percent inhibition of AR, 46.9 nM” value is given as 5%; the “percent inhibition of AR, 187.5 nM” value stood at 28%; the “percent inhibition of AR, 750.0 nM” value was 61%; the “percent inhibition of AR, 3000.0 nM” value was 67%. This substance had an IC50 in the series with AR mRNA [2] (setting [7]) of 630 nM.

For the substance “583892 (k[5mC]*kA*kG*d[5mC]*d[5mC]*dT*dA*dG*dG*d[5mC]*dT*d[5mC]*dT*k[5mC]*kG*k[5mC]; antisense) [compound 583892]”, the “% inhibition” value in the series on AR mRNA [1] (setting [5]) is listed as 35%. Moreover, in the series on AR mRNA [2] (setting [6]), the “percent inhibition of AR, 46.9 nM” value turned out to be 22%; the “percent inhibition of AR, 187.5 nM” value is on record as 38%; the “percent inhibition of AR, 750.0 nM” value was 68%; the “percent inhibition of AR, 3000.0 nM” value is 83%. The substance also registered an IC50 in the series with AR mRNA [2] (setting [6]) of 270 nM.

With “583567 (antisense kG*k[5mC]*kA*d[5mC]*dT*dT*dT*d[5mC]*d[5mC]*dT*dT*dG*d[5mC]*kT*kT*k[5mC]) [compound 583567]”, the “% inhibition” value in the series on AR mRNA [1] (500 nM ASO, ~24 h, Table 16) is 52%. In the series on AR mRNA [2] (setting [8]), the “percent inhibition of AR, 46.9 nM” value came out at 17%; the “percent inhibition of AR, 187.5 nM” value stood at 34%; the “percent inhibition of AR, 750.0 nM” value is listed as 60%; the “percent inhibition of AR, 3000.0 nM” value is given as 79%. Moreover, in the series with AR mRNA [2] (setting [8]), half-maximal inhibition (IC50) was put at 430 nM.

“583689 (antisense kA*kT*kG*d[5mC]*dG*dG*dT*dA*dG*dT*d[5mC]*dG*d[5mC]*kT*kG*k[5mC]) [compound 583689]”: in the series with AR mRNA [1] (500 nM ASO, ~24 h, Table 18), the “% inhibition” value is listed as 39%. Besides, in the series on AR mRNA [2] (setting [3]), the “percent inhibition of AR, 46.9 nM” value is reported as 20%; the “percent inhibition of AR, 187.5 nM” value stood at 34%; the “percent inhibition of AR, 750.0 nM” value was determined as 62%; the “percent inhibition of AR, 3000.0 nM” value came to 74%. In the series with AR mRNA [2] (setting [3]), this substance came in with an IC50 of 440 nM.

As for “549366 (k[5mC]*kT*kT*dG*d[5mC]*d[5mC]*dT*dG*d[5mC]*dG*d[5mC]*dT*dG*kT*k[5mC]*kG; antisense) [compound 549366]”, in the series on AR mRNA [1] (setting [4]), the “% inhibition” value is 84%. Moreover, the “percent inhibition of AR” value in the series on AR mRNA [2] (55.6 nM, ~16 h, Table 4) stood at 44%; in the series on AR mRNA [2] (166.7 nM, ~16 h, Table 4) it was 58%; in the series on AR mRNA [2] (500.0 nM, ~16 h, Table 4), 72%; in the series with AR mRNA [2] (1500.0 nM, ~16 h, Table 4), 91%. Further, the concentration for half-maximal inhibition (IC50) in the series on AR mRNA [2] (~16 h, Table 4) came out at 129 nM.

For the substance “584361 (k[5mC]*kT*kT*d[5mC]*dA*dT*dT*dG*d[5mC]*dA*dG*dG*dT*k[5mC]*kT*kG; antisense) [compound 584361]”, the “% inhibition” value in the series on AR mRNA [1] (1,000 nM ASO, ~24 h, Table 26) was 61%. Besides, in the series on AR mRNA [2] (setting [9]), the “percent inhibition of AR, 46.9 nM” value is recorded as 0%; the “percent inhibition of AR, 187.5 nM” value was found to be 18%; the “percent inhibition of AR, 750.0 nM” value amounted to 71%; the “percent inhibition of AR, 3000.0 nM” value is given as 87%. Further, it took 410 nM to reach half-maximal inhibition with AR mRNA [2] (setting [9]) (IC50).

Regarding “583990 (kA*k[5mC]*kA*d[5mC]*dA*dT*d[5mC]*dA*dG*dG*dT*dG*d[5mC]*kG*kG*kT; antisense) [compound 583990]”, the “% inhibition” value in the series with AR mRNA [1] (Table 22, 500 nM oligonucleotide, electroporation, approximately 24 hours, relative to untreated control) was 30%. Besides, in the series with AR mRNA [2] (setting [10]), the “percent inhibition of AR, 46.9 nM” value was 0%; the “percent inhibition of AR, 187.5 nM” value is given as 9%; the “percent inhibition of AR, 750.0 nM” value is 33%; the “percent inhibition of AR, 3000.0 nM” value was 56%. The IC50 with AR mRNA [2] (setting [10]) amounted to 1920 nM.

As for “569238 (antisense eG*kT*kT*kG*dA*dT*dT*dT*dA*dA*dT*kG*kG*kT*eT*eG) [compound 569238]”, the “% inhibition” value with AR mRNA [1] (1,000 nM ASO, ~24 h, Table 13) stood at 51%. For the same substance, the “percent inhibition of AR” value in the series with AR mRNA [2] (31.25 nM, ~16 h, Table 14) was determined as 4%; in the series with AR mRNA [2] (62.5 nM, ~16 h, Table 14), 32%; in the series with AR mRNA [2] (125.0 nM, ~16 h, Table 14) it was 33%; in the series with AR mRNA [2] (500.0 nM, ~16 h, Table 14), 71%; in the series on AR mRNA [2] (1000.0 nM, ~16 h, Table 14) it was 88%. The same substance gave a half-maximal inhibitory concentration (IC50) in the series on AR mRNA [2] (~16 h, Table 14) of 202 nM.

With “583688 (antisense kG*k[5mC]*kG*dG*dT*dA*dG*dT*d[5mC]*dG*d[5mC]*dT*dG*k[5mC]*kA*kG) [compound 583688]”, in the series with AR mRNA [1] (500 nM ASO, ~24 h, Table 18), the “% inhibition” value is 38%. Further, in the series with AR mRNA [2] (setting [3]), the “percent inhibition of AR, 46.9 nM” value came out at 3%; the “percent inhibition of AR, 187.5 nM” value is listed as 26%; the “percent inhibition of AR, 750.0 nM” value is 50%; the “percent inhibition of AR, 3000.0 nM” value worked out at 60%. The IC50 in the series with AR mRNA [2] (setting [3]) is 1050 nM.

For the substance “549374 (kG*k[5mC]*kG*d[5mC]*dT*dG*d[5mC]*d[5mC]*dG*dT*dA*dG*dT*k[5mC]*k[5mC]*kA; antisense) [compound 549374]”, the “% inhibition” value with AR mRNA [1] (setting [4]) is listed as 93%. Moreover, the “percent inhibition of AR” value in the series on AR mRNA [2] (55.6 nM, ~16 h, Table 3) is given as 40%; in the series with AR mRNA [2] (166.7 nM, ~16 h, Table 3), 59%; in the series on AR mRNA [2] (500.0 nM, ~16 h, Table 3) it was 83%; in the series with AR mRNA [2] (1500.0 nM, ~16 h, Table 3) it was 92%. The substance also yielded an IC50 in the series on AR mRNA [2] (~16 h, Table 3) of 108 nM.

Take “583583 (antisense kG*kA*k[5mC]*dT*dG*dA*dG*dG*d[5mC]*dA*dG*d[5mC]*dT*kG*k[5mC]*kG) [compound 583583]”: in the series on AR mRNA [1] (500 nM ASO, ~24 h, Table 16), the “% inhibition” value came out at 45%. In the series on AR mRNA [2] (setting [8]), the “percent inhibition of AR, 46.9 nM” value is 21%; the “percent inhibition of AR, 187.5 nM” value was determined as 31%; the “percent inhibition of AR, 750.0 nM” value turned out to be 49%; the “percent inhibition of AR, 3000.0 nM” value was determined as 64%. In the series on AR mRNA [2] (setting [8]), this substance gave an IC50 of 790 nM.

On to “583851 (kG*kT*kG*dG*dG*dA*d[5mC]*dG*d[5mC]*dA*d[5mC]*dA*dG*k[5mC]*kG*kG; antisense) [compound 583851]”, for which the “% inhibition” value in the series with AR mRNA [1] (setting [5]) is recorded as 33%. Besides, in the series on AR mRNA [2] (setting [6]), the “percent inhibition of AR, 46.9 nM” value was found to be 8%; the “percent inhibition of AR, 187.5 nM” value was 24%; the “percent inhibition of AR, 750.0 nM” value turned out to be 54%; the “percent inhibition of AR, 3000.0 nM” value is 76%. Also, 610 nM corresponded to half-maximal inhibition in the series on AR mRNA [2] (setting [6]) (IC50).

For the substance “583850 (kG*kG*kA*d[5mC]*dG*d[5mC]*dA*d[5mC]*dA*dG*d[5mC]*dG*dG*kG*kT*kG; antisense) [compound 583850]”, the “% inhibition” value with AR mRNA [1] (setting [5]) is given as 38%. In the series on AR mRNA [2] (setting [7]), the “percent inhibition of AR, 46.9 nM” value is reported as 9%; the “percent inhibition of AR, 187.5 nM” value stood at 21%; the “percent inhibition of AR, 750.0 nM” value is recorded as 54%; the “percent inhibition of AR, 3000.0 nM” value is reported as 78%. Further, 600 nM corresponded to half-maximal inhibition with AR mRNA [2] (setting [7]) (IC50).
